Measured values published in DBAASP.
≈ marks a conversion by molar mass, not a printed value.

How the values were obtained:
Assay in all cases: ≥ marks a high value that may be exact or a test limit, other limits are often not marked, values filed in µg/mL are converted to µM
Escherichia coli = tested on: Escherichia coli
Pseudomonas aeruginosa = tested on: Pseudomonas aeruginosa
Staphylococcus aureus = tested on: Staphylococcus aureus
Fusarium verticillioides = tested on: Fusarium verticillioides
[1] = tested on: Escherichia coli O157:H7 ATCC 43895
Saccharomyces cerevisiae = tested on: Saccharomyces cerevisiae
[2] = tested on: Aspergillus fumigatus KCTC 6145
Botrytis cinerea = tested on: Botrytis cinerea
[3] = tested on: Candida albicans KCTC 7270
Proteus vulgaris = tested on: Proteus vulgaris
Bacillus subtilis = tested on: Bacillus subtilis
[4] = tested on: Staphylococcus epidermidis
[5] = tested on: Listeria monocytogenes KCTC 3710
[6] = tested on: Aspergillus flavus KCTC 9471
Salmonella typhimurium = tested on: Salmonella typhimurium
Trichosporon beigelii = tested on: Trichosporon beigelii
Bacillus cereus = tested on: Bacillus cereus
[7] = tested on: Candida albicans MTCC 227
[8] = tested on: Fusarium solani MTCC 10158
[9] = tested on: Xanthomonas oryzae ITCC BB00026
[10] = tested on: Salmonella enterica subsp. enterica serovar Typhi
[11] = tested on: Xanthomonas axonopodis ITCC BD00029
Vibrio cholerae = tested on: Vibrio cholerae
[12] = tested on: Staphylococcus aureus ATCC 43300
[13] = tested on: Escherichia coli DH5alpha
[14] = tested on: Vibrio ordalii KCCM 41669
[15] = tested on: Aeromonas salmonicida RFAS1
[16] = tested on: Edwardsiella tarda FP4130
[17] = tested on: Streptococcus iniae FP5228
[18] = tested on: Vibrio alginolyticus KCCM 2928
[19] = tested on: Vibrio harveyi ATCC 14126
[20] = tested on: Penicillium expansum EPS 26
[21] = tested on: Pseudomonas syringae EPS 94
[22] = tested on: Fusarium oxysporum f. sp. lycopersici ATCC 201829
[23] = tested on: Xanthomonas vesicatoria 2133-2
[24] = tested on: Rhizopus stolonifer CECT 2344
[25] = tested on: Aspergillus niger CECT 2694
[26] = tested on: Erwinia amylovora PMV 6076

Which results are given for `CC[C@H](C)[C@H](NC(=O)[C@H](CCCCN)NC(=O)[C@H](CO)NC(=O)[C@H](Cc1ccccc1)NC(=O)[C@H](CO)NC(=O)[C@H](CCCCN)NC(=O)[C@H](CCC(=O)O)NC(=O)[C@H](CC(C)C)NC(=O)[C@H](CCCN=C(N)N)NC(=O)[C@H](CCCCN)NC(=O)[C@H](Cc1ccccc1)NC(=O)[C@@H](NC(=O)[C@H](CCCCN)NC(=O)[C@H](CCCCN)NC(=O)[C@H](C)N)C(C)C)C(=O)N[C@@H](CCC(N)=O)C(=O)N[C@@H](CC(N)=O)C(=O)N[C@@H](CC(=O)O)C(=O)N[C@@H](CCCCN)C(N)=O` [AKKVFKRLEKSFSKIQNDK]?
MIC (Escherichia coli): 12.5 µM (≈ 28.7 µg/mL); MIC (Pseudomonas aeruginosa): 12.5 µM (≈ 28.7 µg/mL); MIC (Staphylococcus aureus): > 12.5 µM; MIC (Fusarium verticillioides): ≥ 50 µM; MIC [1]: 12.5 µM (≈ 28.7 µg/mL); MIC (Saccharomyces cerevisiae): 25 µM (≈ 57.3 µg/mL); MIC [2]: ≥ 50 µM; MIC (Botrytis cinerea): ≥ 50 µM; MIC [3]: 25 µM (≈ 57.3 µg/mL); MIC (Proteus vulgaris): 12.5 µM (≈ 28.7 µg/mL); MIC (Bacillus subtilis): 6.25 µM (≈ 14.3 µg/mL); MIC [4]: 12.5 µM (≈ 28.7 µg/mL); MIC [5]: 12.5 µM (≈ 28.7 µg/mL); MIC [6]: ≥ 50 µM; MIC (Salmonella typhimurium): 12.5 µM (≈ 28.7 µg/mL); MIC (Trichosporon beigelii): 12.5 µM (≈ 28.7 µg/mL)

With `NCCCC[C@H](NC(=O)[C@H](CCCCN)NC(=O)[C@H](CS)NC(=O)[C@@H]1CSSC[C@H](N)C(=O)N[C@@H](CCCN=C(N)N)C(=O)N[C@@H](Cc2c[nH]c3ccccc23)C(=O)N[C@@H](CCCN=C(N)N)C(=O)N[C@@H](Cc2c[nH]c3ccccc23)C(=O)N[C@@H](CCCCN)C(=O)N1)C(=O)O` [CRWRWKCCKK] as the molecule, how does the MIC (Bacillus cereus) read?
Its MIC is 10 µM (≈ 13.9 µg/mL).

What about the MIC [7] of the same molecule?
Its MIC is at least 40 µM.

What about the MIC [8] of the same molecule?
The MIC was 20 µM (≈ 27.9 µg/mL).

And the MIC [9]?
The MIC was 10 µM (≈ 13.9 µg/mL).

And the MIC [10]?
The MIC was 10 µM (≈ 13.9 µg/mL).

What about the MIC [11] of the same molecule?
The MIC was 5 µM (≈ 6.97 µg/mL).

What about the MIC (Vibrio cholerae) of the same molecule?
Its MIC is 20 µM (≈ 27.9 µg/mL).

And the MIC [12]?
Its MIC is 10 µM (≈ 13.9 µg/mL).

What about the MIC [13] of the same molecule?
Its MIC is 20 µM (≈ 27.9 µg/mL).

For `CC(C)C[C@H](NC(=O)[C@H](CCCN=C(N)N)NC(=O)CNC(=O)[C@H](Cc1ccccc1)NC(=O)[C@@H](N)Cc1ccccc1)C(=O)N[C@@H](CCCCN)C(=O)N[C@@H](C)C(=O)N[C@H](C(=O)N[C@@H](Cc1ccccc1)C(=O)N[C@@H](CCCN=C(N)N)C(=O)NCC(=O)N[C@@H](C)C(=O)N[C@@H](CCCN=C(N)N)C(=O)N[C@@H](CCC(N)=O)C(=O)NCC(=O)N[C@@H](Cc1c[nH]c2ccccc12)C(=O)N[C@@H](CCCCN)C(=O)N[C@@H](CCC(=O)O)C(=O)N[C@@H](Cc1cnc[nH]1)C(=O)N[C@@H](CCCN=C(N)N)C(=O)N[C@@H](Cc1ccc(O)cc1)C(=O)O)C(C)C` [FFGRLKAVFRGARQGWKEHRY], which MIC [14] is on record?
Its MIC is 15.6 µM (≈ 40.7 µg/mL).

What about the MIC [15] of the same molecule?
The MIC was 7.8 µM (≈ 20.4 µg/mL).

What about the MIC [16] of the same molecule?
Its MIC is 15.6 µM (≈ 40.7 µg/mL).

What about the MIC [17] of the same molecule?
Its MIC is 7.8 µM (≈ 20.4 µg/mL).

What about the MIC [18] of the same molecule?
The MIC was 0.5 µM (≈ 1.31 µg/mL).

And the MIC [19]?
Its MIC is 0.5 µM (≈ 1.31 µg/mL).

With `CC[C@H](C)[C@H](NC(=O)[C@H](CCCCN)NC(=O)[C@H](CCCCN)NC(=O)[C@H](Cc1ccccc1)NC(=O)[C@H](CC(C)C)NC(=O)[C@H](CCCCN)NC(=O)[C@@H](N)Cc1c[nH]c2ccccc12)C(=O)N[C@@H](CC(C)C)C(=O)N[C@@H](CCCCN)C(=O)N[C@@H](Cc1ccc(O)cc1)C(=O)N[C@@H](CC(C)C)C(N)=O` [WKLFKKILKYL] as the molecule, how does the MIC [20] read?
The MIC was 22.4 µM (≈ 33.1 µg/mL).

And the MIC [21]?
Its MIC is 3.16 µM (≈ 4.68 µg/mL).

What about the MIC [22] of the same molecule?
The MIC was 0.849 µM (≈ 1.25 µg/mL).

And the MIC [23]?
The MIC was 3.16 µM (≈ 4.68 µg/mL).

And the MIC [24]?
Its MIC is at least 35.4 µM.

And the MIC [25]?
The MIC was 17.3 µM (≈ 25.6 µg/mL).

What about the MIC [26] of the same molecule?
The MIC was 3.16 µM (≈ 4.68 µg/mL).
